Data taken from patent US20060040944A1, “5-Aza-7-deazapurine derivatives for treating Flaviviridae” (priority 2004, published 2006).
pEC50: −log10 of the molar value. Where two headings read alike, the source gives them in different places.

What was measured:
[1] = test system: host cells of the DENV-2 test (not named); assay: Cytotoxicity assay (CC50), DENV-2 column; settings: read-out: DENV-2 CC50; concentration reducing cell number by 50%; cell line not named
[2] = test system: DENV-2; assay: Antiviral activity against DENV-2 (Table 2)
[3] = test system: BHK-21 cells
[4] = test system: West Nile; assay: Antiviral activity against West Nile virus (Table 2); settings: read-out: West Nile EC50
[5] = test system: host cells of the West Nile test (not named); assay: Cytotoxicity assay (CC50), West Nile column; settings: read-out: West Nile CC50; concentration reducing cell number by 50%; cell line not named
[6] = test system: Yellow Fever; assay: microbe, parasite or virus in culture; format: cell-based, Yellow fever virus, vaccine strain 17D (YFV-17D)
[7] = test system: BT cells
[8] = test system: MT-4; assay: MT-4 cell test (Table 2); format: cell-based; settings: MT-4 cells, no virus named
[9] = in vitro; settings: hamster
[10] = in vitro; settings: cattle (Bos taurus)
[11] = Cytotoxicity assay (CC50), DENV-2 column
[12] = test system: BVDV; assay: microbe, parasite or virus in culture; format: cell-based; settings: Bovine viral diarrhea virus isolates and strains, MDBK, read-out: BVDV EC50
[13] = Cytotoxicity assay (CC50), West Nile column

SMILES | CC50 [1] [µM] | pEC50 ([2]; read-out: DENV-2 EC50, DENV-2) | CC50 [3] [µM] | pEC50 [4] | CC50 [5] [µM] | pEC50 ([6]; read-out: Yellow Fever EC50) | CC50 [7] [µM] | pEC50 [8] | CC50 [9] [µM] | CC50 [10] [µM] | CC50 at 4 days [11] [µM] | pEC50 ([2]; Dengue virus, DENV2, read-out: DENV-2 EC50) | pEC50 [12] | CC50 at 4 days [13] [µM] | pEC50 ([6]; Yellow fever virus, BHK-21, read-out: Yellow Fever EC50) | pEC50 ([8]; Homo sapiens, MT4)
Nc1nc(=O)n2ccn([C@H]3C[C@H](O)[C@@H](CO)O3)c2n1 [2-amino-8-(β-D-2-deoxyribo-furanosyl)-imidazo[1,2-a]-s-triazin-4-one] | > 100 | < 4.00 | > 100 | < 4.00 | > 100 | < 4.00 | > 100 | < 4.00 | – | – | – | – | – | – | – | –
Nc1nc(=O)n2ccn([C@@H]3O[C@H](CO)[C@@H](O)[C@H]3O)c2n1 [2-amino-8-(β-D-ribo-furanosyl)-imidazo[1,2-a]-s-triazin-4-one] | – | – | – | < 4.00 | – | – | – | – | > 100 | > 100 | > 100 | < 4.00 | 4.51 | > 100 | < 4.00 | < 4.00
